Assays:
[1] = test system: hop (Zatecky poloskory cervenak); assay: Foliar treatment of hop seedlings (Example 1): contents of alpha acid, beta acid, hop oils; dry weight; assay type: in vivo; details: for (Reference) Dry weight / Beta acid (%) / Hop oil myrcene / Hop oil pharnesene / Alpha acid (%) / (Reference) Dry weight, ratio to no treatment / Alpha acid (ratio to no treatment) / Beta acid (ratio to no treatment) / Hop oil myrcene (ratio to no treatment) / Hop oil pharnesene (ratio to no treatment): foliar treatment 5 times; for Alpha acid (%): Zatecky poloskory cervenak; for (Reference) Dry weight, ratio to no treatment / Alpha acid (ratio to no treatment) / Beta acid (ratio to no treatment) / Hop oil myrcene (ratio to no treatment) / Hop oil pharnesene (ratio to no treatment): no treatment = 100
Source text: Seedlings of Zatecky poloskory cervenak cultivated by conventional method in Slovakia in 2006 were subjected to foliar treatment at timing shown in Table 1 with an aqueous 5-aminolevulinic acid (ALA) hydrochloride solution shown in Table 2.

[2] = test system: hop (high alpha acid type Marynka species); assay: Foliar treatment of hop seedlings (Example 2): alpha acid content; yield; assay type: in vivo; details: for Alpha acid (%): Marynka; for (Reference) Yield (ratio to no treatment %) / Alpha acid (ratio to no treatment): no treatment = 100
Source text: Seedlings of a high alpha acid type Marynka species cultivated by conventional method in Poland in 2006 were subjected to foliar treatment at timing shown in Table 4 with an aqueous ALA hydrochloride solution the same as in Example 1.

[3] = Treatment 1 (basal fertilizer 30% up): 0.05%, 1000 L/ha, 6 times
[4] = Treatment 1: 0.05%, 1000 L/ha, 6 times
[5] = Treatment 2: 0.05%, 1000, 2000, 3000 L/ha at 1st, 3rd, 5th time

NCC(=O)CCC(=O)O [ALA, 5-aminolevulinic acid]
contents of an alpha acid, a beta acid, and hop oils ([1]; ALA treatment versus no treatment, Table 3, in words): remarkably increased | (Reference) Dry weight ([1]; 0.02%, 2500 L/ha): 1.76 t/ha | Beta acid (%) ([1]; 0.02%, 2500 L/ha): 4.62% | Hop oil myrcene ([1]; 0.02%, 2500 L/ha): 51.6 | Hop oil pharnesene ([1]; 0.02%, 2500 L/ha): 19.9 | Alpha acid (%) ([1]; 0.02%, 2500 L/ha): 3.26% | (Reference) Dry weight, ratio to no treatment ([1]; 0.02%, 2500 L/ha): 125% | Alpha acid (ratio to no treatment) ([1]; 0.02%, 2500 L/ha): 127 | Beta acid (ratio to no treatment) ([1]; 0.02%, 2500 L/ha): 105 | Hop oil myrcene (ratio to no treatment) ([1]; 0.02%, 2500 L/ha): 149 | Hop oil pharnesene (ratio to no treatment) ([1]; 0.02%, 2500 L/ha): 121 | (Reference) Dry weight ([1]; 0.1%, 500 L/ha): 1.44 t/ha | Beta acid (%) ([1]; 0.1%, 500 L/ha): 4.95% | Hop oil myrcene ([1]; 0.1%, 500 L/ha): 57.0 | Hop oil pharnesene ([1]; 0.1%, 500 L/ha): 17.6 | Alpha acid (%) ([1]; 0.1%, 500 L/ha): 3.11% | (Reference) Dry weight, ratio to no treatment ([1]; 0.1%, 500 L/ha): 103% | Alpha acid (ratio to no treatment) ([1]; 0.1%, 500 L/ha): 121 | Beta acid (ratio to no treatment) ([1]; 0.1%, 500 L/ha): 113 | Hop oil myrcene (ratio to no treatment) ([1]; 0.1%, 500 L/ha): 164 | Hop oil pharnesene (ratio to no treatment) ([1]; 0.1%, 500 L/ha): 107 | content of an alpha acid ([2]; ALA treatment versus no treatment, Table 5, in words): remarkably increased | (Reference) Yield (kg/ha) [2, 3]: 1610 kg/ha | Alpha acid (%) [2, 3]: 6.98% | (Reference) Yield (ratio to no treatment %) [2, 3]: (104) % | Alpha acid (ratio to no treatment) [2, 3]: (104) | (Reference) Yield (kg/ha) [2, 4]: 1609 kg/ha | Alpha acid (%) [2, 4]: 6.82% | (Reference) Yield (ratio to no treatment %) [2, 4]: (104) % | Alpha acid (ratio to no treatment) [2, 4]: (102) | (Reference) Yield (kg/ha) [2, 5]: 1610 kg/ha | Alpha acid (%) [2, 5]: 6.95% | (Reference) Yield (ratio to no treatment %) [2, 5]: (104) % | Alpha acid (ratio to no treatment) [2, 5]: (104)

Reference: patent US20100105948A1, “HOP ALPHA ACID OR HOP OIL CONTENT ENHANCER” (COSMO OIL CO., LTD., priority 2007, published 2010)
